These results are taken from PubChem BioAssay (NCI).

Test systems include SK-OV-3 ovarian; SNB-19 CNS; OVCAR-4 ovarian; IGROV1 ovarian; HL-60(TB) leukemia; NCI-H226 lung; MDA-MB-435; CCRF-CEM leukemia; A549 NSCLC; MALME-3M melanoma.
Holding throughout (assay): NCI tumour cell line growth inhibition, 48 h

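Tested at 5 concentrations; 48 h exposure; 96-well plates; endpoints linearly interpolated, else capped at highest concentration. GI50 is the concentration that inhibits growth by half. TGI is the concentration that stops growth completely.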

In the case of `NC1=CC(=O)c2cccnc2C1=O`, the GI50 was 4260 nM in the assay with SK-OV-3 ovarian; 1840 nM in the assay on SNB-19 CNS; 1300 nM in the assay with OVCAR-4 ovarian; 1280 nM in the assay with IGROV1 ovarian; 1050 nM in the assay with HL-60(TB) leukemia; 7610 nM with NCI-H226 lung. Besides, the GI50 is 833 nM with MDA-MB-435, 1190 nM in the assay with CCRF-CEM leukemia, 3840 nM in the assay with A549 NSCLC and 1700 nM in the assay on MALME-3M melanoma. For the same molecule, the TGI with SK-OV-3 ovarian was determined as 17800 nM; with SNB-19 CNS, 3880 nM; in the assay with OVCAR-4 ovarian, 2780 nM; in the assay on IGROV1 ovarian it was 3290 nM; with HL-60(TB) leukemia, 3990 nM; with NCI-H226 lung, 27700 nM. Moreover, the TGI with MDA-MB-435 was 2120 nM; with CCRF-CEM leukemia, 4880 nM; in the assay on A549 NSCLC, 15000 nM; in the assay on MALME-3M melanoma, 3110 nM.

For `CC[C@H](NC(=O)[C@H]1CCCCN1C)C(=O)N(C)[C@H](C[C@@H](OC(C)=O)c1nc(C(=O)N[C@@H](Cc2ccccc2)C[C@H](C)C(=O)O)cs1)C(C)C`, the GI50 was 3.83 nM in the assay with SK-OV-3 ovarian; 5.68 nM in the assay on SNB-19 CNS; 32.6 nM in the assay with OVCAR-4 ovarian; 14.5 nM in the assay with IGROV1 ovarian; 4.33 nM in the assay with HL-60(TB) leukemia; less than 1.43 nM in the assay with MDA-MB-435. Besides, the GI50 in the assay on CCRF-CEM leukemia is 3.83 nM; in the assay with A549 NSCLC, 10.9 nM; in the assay with MALME-3M melanoma, 5.38 nM. Besides, the TGI with SK-OV-3 ovarian was more than 14300 nM; in the assay on SNB-19 CNS, more than 14300 nM; in the assay with OVCAR-4 ovarian, more than 14300 nM; in the assay on IGROV1 ovarian it was more than 14300 nM; in the assay on HL-60(TB) leukemia it was 19 nM; in the assay with NCI-H226 lung it was more than 7570 nM. Further, the TGI in the assay with MDA-MB-435 was 3.91 nM; with CCRF-CEM leukemia it was more than 14300 nM; in the assay with A549 NSCLC, more than 14300 nM; in the assay on MALME-3M melanoma, more than 14300 nM.

For `COc1ccc(/C=C(/C(=O)N2CCN(c3ccccc3)CC2)c2cc(OC)c(OC)c(OC)c2)cc1N`, the GI50 with SK-OV-3 ovarian is 472 nM; with SNB-19 CNS it was 444 nM; in the assay with OVCAR-4 ovarian, 3050 nM; in the assay with IGROV1 ovarian, 697 nM; with HL-60(TB) leukemia, 241 nM; in the assay on NCI-H226 lung, 3200 nM. The GI50 is 138 nM in the assay with MDA-MB-435, 301 nM with CCRF-CEM leukemia, 680 nM with A549 NSCLC and 12200 nM with MALME-3M melanoma. Further, the TGI in the assay on SK-OV-3 ovarian is more than 100000 nM; in the assay on SNB-19 CNS, more than 100000 nM; in the assay on OVCAR-4 ovarian, more than 100000 nM; in the assay on IGROV1 ovarian, more than 100000 nM; in the assay on HL-60(TB) leukemia, 596 nM; in the assay on NCI-H226 lung, more than 100000 nM. The TGI with MDA-MB-435 was 419 nM; in the assay with CCRF-CEM leukemia, more than 100000 nM; in the assay with A549 NSCLC, more than 100000 nM; in the assay on MALME-3M melanoma, more than 100000 nM.

With `CC[C@H]1CN2CCc3cc(OC)c(OC)cc3C2C[C@@H]1CC1NCCc2cc(OC)c(OC)cc21` (stereo not given in full), the TGI in the assay with SK-OV-3 ovarian was 292 nM; in the assay with OVCAR-4 ovarian it was 48.1 nM; in the assay with IGROV1 ovarian it was 407 nM; in the assay on HL-60(TB) leukemia it was 144 nM; in the assay with NCI-H226 lung it was 194 nM; with MDA-MB-435 it was 112 nM. For the same molecule, the TGI in the assay with CCRF-CEM leukemia amounted to 204 nM; with A549 NSCLC it was 52.3 nM; in the assay with MALME-3M melanoma, 222 nM. Further, the values for the GI50 in the assay with HL-60(TB) leukemia, with MDA-MB-435 and in the assay with CCRF-CEM leukemia were 20.4 nM, 16.1 nM and 18.6 nM, respectively.

Take `O=C(COc1ccc(/C=C2\COc3ccccc3C2=O)cc1)Nc1nccs1`: the GI50 in the assay with SK-OV-3 ovarian was 30900 nM; with SNB-19 CNS, 12800 nM; in the assay on OVCAR-4 ovarian, 20500 nM; in the assay with HL-60(TB) leukemia, 1680 nM; in the assay with NCI-H226 lung, 14400 nM; with MDA-MB-435, 3560 nM. Also, the GI50 with CCRF-CEM leukemia is 1610 nM; with A549 NSCLC it was 14300 nM; in the assay on MALME-3M melanoma it was 16300 nM. In addition, the TGI in the assay with SK-OV-3 ovarian worked out at 69500 nM; in the assay with SNB-19 CNS it was 25400 nM; with OVCAR-4 ovarian, 68500 nM; in the assay with HL-60(TB) leukemia it was 3480 nM; in the assay with NCI-H226 lung, 29900 nM; with MDA-MB-435, 18400 nM. Further, the results for the TGI in the assay with CCRF-CEM leukemia, in the assay with A549 NSCLC and in the assay with MALME-3M melanoma were 6390 nM, 47400 nM and 36200 nM, respectively.

`CC[C@@H]1[C@@H](C)O[C@@](O)([C@@H](C)[C@H](O)[C@H](C)[C@H]2OC(=O)/C=C/C=C/[C@H](C)[C@@H]([C@@H](C)[C@@H](O)[C@H](C)[C@@]3(O)C[C@@H](O[C@H]4C[C@@H](O)[C@H](O)C(C)O4)[C@H](CC)[C@@H](C)O3)OC(=O)/C=C/C=C/[C@@H]2C)C[C@H]1O[C@@H]1C[C@@H](O)[C@H](O)C(C)O1` (stereo not given in full): the GI50 in the assay on SK-OV-3 ovarian was 72 nM; in the assay with SNB-19 CNS, 73.1 nM; in the assay with OVCAR-4 ovarian, 74.1 nM; in the assay on IGROV1 ovarian, 90.3 nM; in the assay on HL-60(TB) leukemia, 70.8 nM; in the assay with NCI-H226 lung it was 65.5 nM. Also, the GI50 with MDA-MB-435 was 86.7 nM; in the assay on A549 NSCLC, 112 nM; with MALME-3M melanoma it was 85.7 nM. Besides, the TGI in the assay with SK-OV-3 ovarian is 189 nM; in the assay with SNB-19 CNS it was 212 nM; in the assay on OVCAR-4 ovarian it was 192 nM; in the assay on IGROV1 ovarian it was 241 nM; in the assay with HL-60(TB) leukemia it was 140 nM; in the assay with NCI-H226 lung, 139 nM. Further, the TGI in the assay on MDA-MB-435 was 261 nM; in the assay on A549 NSCLC it was 344 nM; with MALME-3M melanoma, 234 nM.

Turning to `C[C@]12CCc3nc(Nc4cccc(O)c4)sc3C1=CC[C@@H]1[C@@H]2CC[C@]2(C)/C(=N\NC(N)=S)CC[C@@H]12`, the GI50 in the assay with SK-OV-3 ovarian was 3210 nM; with SNB-19 CNS, 1880 nM; in the assay with IGROV1 ovarian, 2310 nM; with HL-60(TB) leukemia it was 2530 nM; in the assay with NCI-H226 lung it was 5340 nM; in the assay on MDA-MB-435, 1760 nM. The GI50 was 1970 nM in the assay with CCRF-CEM leukemia, 2950 nM with A549 NSCLC and 1600 nM in the assay with MALME-3M melanoma. The TGI came to 22000 nM in the assay with SK-OV-3 ovarian; 12800 nM in the assay with SNB-19 CNS; 6250 nM with IGROV1 ovarian; 8310 nM in the assay with HL-60(TB) leukemia; 80700 nM with NCI-H226 lung; 4550 nM with MDA-MB-435. Also, the TGI is more than 100000 nM in the assay on CCRF-CEM leukemia, 11400 nM with A549 NSCLC and 3510 nM in the assay with MALME-3M melanoma.
